The values below come from patent US8623900B2, “Amino alcohol derivatives and their therapeutic activities” (Flamma S.p.A., priority 2009, dated 2014).

The structures appear in SMILES notation.

The nature of data set [1]: carbonyl-quenching activity towards HNE in vitro (residual HNE by reverse-phase chromatography). The format is biochemical. The following applies: HNE 50 μM, compound 1 mM, phosphate buffer 10 mM, pH 7.4, 37° C.; percentage of HNE reacted after one, two and three hours. Here is the method:
The pharmacological activity of the compounds according to the invention was determined in vitro by evaluating their carbonyl-quenching activity towards 4-hydroxy nonenal ([…]), which is known for its involvement in numerous disorders.
The activity was evaluated one, two and three hours after incubation, determining the residual HNE content by reverse-phase chromatography as previously described by Aldini G. et al. [Biochem Biophys Res Commun. 2002 Nov. 15; 298(5):699-706]. The carbonyl-quenching activity is evaluated on the basis of the percentage of HNE reacted, compared with the HNE content in the absence of the molecule to be tested.

For the next data set, the system named is rat. The data set is described as follows: preliminary toxicological study in the rat. It is filed as in vivo.

As to `NCCC(=O)N[C@H](CO)Cc1cnc[nH]1` [3-Amino-N-[(1S)-2-hydroxy-1-(1H-imidazol-5-yl-methyl)-ethyl]propanamide], in data set [1], the “carbonyl-quenching activity relative to β-alanyl histidine (standard substance)” value was 1.66 times. Further, the toxic effects result is on record as “no toxic effects were observed” in the data set on rat (IV, 3 consecutive doses 3, 10 and 30 mg/kg); “no toxic effects were observed” with rat (intraperitoneal, single dose 100 mg/kg); “no toxic effects were observed” in the data set on rat (per os (gavage), 100 mg/kg/day for 7 days).
